# Measurements: patent US20260007133A1, “HERBICIDAL COMPOSITION COMPRISING AZINE COMPOUNDS” (BASF SE, priority 2022, published 2026)
# Several values for one entry are separate records, joined by “and”; a condition that tells them apart may be missing. Equal entries are not always repeated. Where two headings read alike, the source gives them in different places.
# Legend:
# Format in all cases: in vivo
# Abutilon theophrasti [1] = assay: Greenhouse pre-emergence (PRE) herbicidal test on ABUTH; conditions: Abutilon theophrasti, pre-emergence; for inhibition at 2 g/ha: use rate 2 gai/ha; for inhibition at 8 g/ha: use rate 8 gai/ha
# In short: (§1)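 Seeds were sown per species in pots of loamy sand with about 3.0% humus, treated pre-emergence, watered and hooded until rooted. Plants grew at 10-25° C or 20-35° C depending on species. Damage was scored 0-100 (100 = no emergence or above-ground parts destroyed) at 20 DAT.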
# Alopecurus myosuroides = assay: Greenhouse pre-emergence (PRE) herbicidal test on ALOMY
# In short: as §1
# Ambrosia artemisiifolia = assay: Greenhouse pre-emergence (PRE) herbicidal test on AMBEL; conditions: Ambrosia artemisiifolia, pre-emergence; for inhibition at 8 g/ha: use rate 8 gai/ha
# Commelina benghalensis = assay: Greenhouse pre-emergence (PRE) herbicidal test on COMBE; conditions: Commelina benghalensis, pre-emergence
# In short: as §1
# Echinochloa crus-galli = assay: Greenhouse pre-emergence (PRE) herbicidal test on ECHCG; conditions: PRE, ECHCG, use rate 2 gai/ha, 20 DAT
# Galium aparine = assay: Greenhouse pre-emergence (PRE) herbicidal test on GALAP; conditions: Galium aparine, pre-emergence; PRE; GALAP; use rate 1 gai/ha
# Text: (§2) The culture containers used were plastic pots containing loamy sand with approximately 3.0% of humus as substrate. The seeds of the test plants were sown separately for each species.
# (§3) For the pre-emergence treatment, the active compounds, suspended or emulsified in water, were applied directly after sowing by means of finely distributing nozzles. The containers were irrigated gently to promote germination and growth and subsequently covered with transparent plastic hoods until the plants had rooted. This cover caused uniform germination of the test plants unless this was adversely affected by the active compounds.
# (§4) Depending on the species, the plants were kept at 10-25° C. and 20-35° C., respectively.
# (§5) The test period extended over 2 to 4 weeks. During this time, the plants were tended and their response to the individual treatments was evaluated.
# (§6) Evaluation was carried out using a scale from 0 to 100. 100 means no emergence of the plants, or complete destruction of at least the above-ground parts, and 0 means no damage or normal course of growth. A good herbicidal activity is given at values of at least 70, and very good herbicidal activity is given at values of at least 85.
# (§7) If not stated differently, the respective components A and B, and if appropriate, C were formulated as a 5% by weight strength emulsion concentrate and, with addition of the amount of solvent system, introduced into the spray liquor used for applying the active compound.
# (§8) As indicated application was either post emergent (POST) at the respective growth stage (GS) of the weed (BBCH code), or pre-emergent (PRE).
# (§9) Assessment was 20 days after treatment (DAT).
# Geranium pusillum [2] = assay: Greenhouse pre-emergence (PRE) herbicidal test on GERPU; conditions: Geranium pusillum, pre-emergence; for inhibition at 4 g/ha: use rate 4 gai/ha
# Text: as §2, §3, §4, §5, §6, §7, §8, §9
# Setaria viridis = assay: Greenhouse pre-emergence (PRE) herbicidal test on SETVI; conditions: Setaria viridis, pre-emergence; for inhibition at 2 g/ha: use rate 2 gai/ha
# In short: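 Seeds sown per species in pots of loamy sand with approx. 3.0% humus; compounds suspended or emulsified in water were sprayed via fine nozzles directly after sowing. Pots were watered and hooded until rooted, held at 10-25° C. or 20-35° C. by species, and scored 0–100 (100 = no emergence/complete destruction) 20 DAT.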
# Abutilon theophrasti [3] = assay: Greenhouse post-emergence (POST) herbicidal test on ABUTH; conditions: Abutilon theophrasti, post-emergence, POST, ABUTH; for inhibition at 2 g/ha: use rate 2 gai/ha
# In short: (§10)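 Visual damage rating on a 0–100 scale, 0 meaning normal growth and 100 complete kill of above-ground parts, taken 20 days after treatment. Spray applied post-emergence to plants 3–15 cm tall in loamy sand with approximately 3.0% humus.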
# Amaranthus retroflexus = assay: Greenhouse post-emergence (POST) herbicidal test on AMARE; conditions: Amaranthus retroflexus, post-emergence, POST, AMARE
# In short: as §10
# Digitaria sanguinalis = assay: Greenhouse post-emergence (POST) herbicidal test on DIGSA; conditions: for inhibition at 2 g/ha / inhibition at 4 g/ha / inhibition at 1 g/ha / inhibition at 8 g/ha: Digitaria sanguinalis, post-emergence; for inhibition at 2 g/ha: use rate 2 gai/ha; for inhibition at 4 g/ha: use rate 4 gai/ha; for inhibition at 1 g/ha: use rate 1 gai/ha
# In short: as §10
# Geranium pusillum [4] = assay: Greenhouse post-emergence (POST) herbicidal test on GERPU; conditions: Geranium pusillum, post-emergence; for inhibition at 2 g/ha: use rate 2 gai/ha; for inhibition at 4 g/ha: use rate 4 gai/ha; for inhibition at 8 g/ha: use rate 8 gai/ha
# In short: as §10
# Ipomoea hederacea = assay: Greenhouse post-emergence (POST) herbicidal test on IPOHE; conditions: Ipomoea hederacea, post-emergence
# In short: as §10
# [5] = DIGSA POST, read-out: % activity
# [6] = POST, DIGSA, read-out: % activity
# [7] = 480 h, POST, GERPU, 20 DAT, read-out: % activity
# [8] = ABUTH PRE, read-out: % activity
# [9] = 480 h, use rate 8 gai/ha, 20 DAT, read-out: solo application % activity
# [10] = 480 h, POST, GERPU, 20 DAT, read-out: solo application % activity
smiles,measurement,setting,value
COc1c(F)cc(F)c(F)c1Nc1nc(N)nc(C(C)(C)F)n1 [Compound I-1],inhibition at 2 g/ha,"Abutilon theophrasti [1]; 480 h, PRE, ABUTH, 20 DAT, read-out: % activity",65%
same,inhibition at 4 g/ha,"Abutilon theophrasti [1]; 480 h, PRE, ABUTH, use rate 4 gai/ha, 20 DAT",75%
same,inhibition at 1 g/ha,"Abutilon theophrasti [1]; ABUTH PRE, use rate 1 gai/ha, read-out: % activity",75%
same,% activity,"Alopecurus myosuroides; ALOMY PRE, use rate 1 gai/ha",30%
same,inhibition at 1 g/ha,"Alopecurus myosuroides; Alopecurus myosuroides, pre-emergence, 480 h, PRE, ALOMY, use rate 1 gai/ha, 20 DAT",10%
same,inhibition at 1 g/ha,"Alopecurus myosuroides; Alopecurus myosuroides, pre-emergence, ALOMY PRE, use rate 1 gai/ha",15%
same,inhibition at 4 g/ha,"Alopecurus myosuroides; Alopecurus myosuroides, pre-emergence, ALOMY PRE, use rate 4 gai/ha",90%
same,inhibition at 1 g/ha,"Ambrosia artemisiifolia; 480 h, PRE, AMBEL, use rate 1 gai/ha, 20 DAT",10%
same,inhibition at 1 g/ha,"Commelina benghalensis; COMBE PRE, use rate 1 gai/ha",35%
same,inhibition at 4 g/ha,"Commelina benghalensis; COMBE PRE, use rate 4 gai/ha",0%
same,% activity,Echinochloa crus-galli,35% and 65%
same,inhibition at 1 g/ha,Galium aparine,0%
same,inhibition at 4 g/ha,"Geranium pusillum [2]; 480 h, PRE, GERPU, 20 DAT",50%
same,inhibition at 1 g/ha,"Geranium pusillum [2]; GERPU PRE, use rate 1 gai/ha",0%
same,inhibition at 4 g/ha,Geranium pusillum [2]; GERPU PRE,20%
same,inhibition at 4 g/ha,"Geranium pusillum [2]; PRE, GERPU",10%
same,inhibition at 2 g/ha,"Setaria viridis; 480 h, PRE, SETVI, 20 DAT, read-out: % activity",20%
same,inhibition at 2 g/ha,"Abutilon theophrasti [3]; 480 h, 20 DAT, read-out: % activity",30%
same,inhibition at 4 g/ha,"Abutilon theophrasti [3]; 480 h, use rate 4 gai/ha, 20 DAT",50%
same,inhibition at 1 g/ha,Abutilon theophrasti [3]; use rate 1 gai/ha,10%
same,inhibition at 2 g/ha,Abutilon theophrasti [3]; read-out: % activity,10%
same,inhibition at 1 g/ha,Amaranthus retroflexus; use rate 1 gai/ha,50%
same,inhibition at 2 g/ha,"Digitaria sanguinalis; 480 h, POST, DIGSA, 20 DAT, read-out: % activity",0%
same,inhibition at 4 g/ha,"Digitaria sanguinalis; 480 h, POST, DIGSA, 20 DAT",30%
same,inhibition at 1 g/ha,Digitaria sanguinalis; [5],5%
same,inhibition at 4 g/ha,Digitaria sanguinalis; DIGSA POST,25%
same,inhibition at 1 g/ha,Digitaria sanguinalis; [6],0%
same,inhibition at 2 g/ha,Digitaria sanguinalis; [6],10%
same,inhibition at 2 g/ha,Geranium pusillum [4]; [7],0%
same,inhibition at 4 g/ha,"Geranium pusillum [4]; 480 h, POST, GERPU, 20 DAT",0%
same,inhibition at 8 g/ha,Geranium pusillum [4]; [7],50%
same,inhibition at 16 g/ha,"Geranium pusillum [4]; 480 h, POST, GERPU, use rate 16 gai/ha, 20 DAT",70%
same,inhibition at 4 g/ha,Geranium pusillum [4]; GERPU POST,55%
same,inhibition at 1 g/ha,"Geranium pusillum [4]; POST, GERPU, use rate 1 gai/ha",30%
"COc1c(Cl)c(F)c(F)c(F)c1Nc1nc(N)nc(C(C)(C)F)n1 [Compound I-4, N4-(5-Chloro-2,3,4-trifluoro-6-methoxy-phenyl)-6-(1-fluoro-1-methyl-ethyl)-1,3,5-triazine-2,4-diamine]",inhibition at 8 g/ha,"Abutilon theophrasti [1]; 240 h, PRE, 10 DAT, read-out: % activity",50%
same,inhibition at 16 g/ha,"Abutilon theophrasti [1]; 240 h, PRE, use rate 16 gai/ha, 10 DAT",70%
same,pest or weed control at 2 g/ha,"Abutilon theophrasti [1]; 480 h, PRE, ABUTH, I-4 solo 2 gai/ha, 20 DAT",35%
same,inhibition at 8 g/ha,"Abutilon theophrasti [1]; 480 h, PRE, ABUTH, 20 DAT, read-out: solo application % activity",90%
same,inhibition at 2 g/ha,Abutilon theophrasti [1]; [8],10%
same,inhibition at 8 g/ha,Abutilon theophrasti [1]; [8],80%
same,pest or weed control at 2 g/ha,"Alopecurus myosuroides; Alopecurus myosuroides, pre-emergence, 480 h, PRE, ALOMY, I-4 solo 2 gai/ha, 20 DAT, read-out: % activity",50%
same,inhibition at 2 g/ha,"Alopecurus myosuroides; Alopecurus myosuroides, pre-emergence, 480 h, PRE, ALOMY, use rate 2 gai/ha, 20 DAT, read-out: solo application % activity",5%
same,inhibition at 8 g/ha,"Alopecurus myosuroides; Alopecurus myosuroides, pre-emergence, 480 h, PRE, ALOMY, use rate 8 gai/ha, 20 DAT, read-out: solo application % activity",25%
same,inhibition at 4 g/ha,"Ambrosia artemisiifolia; 240 h, PRE, use rate 4 gai/ha, 10 DAT",10%
same,pest or weed control at 8 g/ha,"Ambrosia artemisiifolia; 480 h, PRE, AMBEL, I-4 solo 8 gai/ha, 20 DAT",35%
same,inhibition at 2 g/ha,"Ambrosia artemisiifolia; 480 h, PRE, AMBEL, use rate 2 gai/ha, 20 DAT, read-out: solo application % activity",0%
same,inhibition at 8 g/ha,"Ambrosia artemisiifolia; 480 h, PRE, AMBEL, 20 DAT, read-out: solo application % activity",30%
same,inhibition at 8 g/ha,"Ambrosia artemisiifolia; AMBEL PRE, read-out: % activity",15%
same,pest or weed control at 2 g/ha,"Commelina benghalensis; 480 h, PRE, COMBE, I-4 solo 2 gai/ha, 20 DAT, read-out: % activity",10%
same,inhibition at 8 g/ha,"Commelina benghalensis; 480 h, PRE, COMBE, use rate 8 gai/ha, 20 DAT, read-out: solo application % activity",10%
same,inhibition at 2 g/ha,"Geranium pusillum [2]; 480 h, PRE, use rate 2 gai/ha, 20 DAT",10%
same,pest or weed control at 8 g/ha,"Setaria viridis; 480 h, PRE, SETVI, I-4 solo 8 gai/ha, 20 DAT",80%
same,inhibition at 2 g/ha,"Setaria viridis; 480 h, PRE, SETVI, 20 DAT, read-out: solo application % activity",5%
same,inhibition at 8 g/ha,"Setaria viridis; 480 h, PRE, SETVI, use rate 8 gai/ha, 20 DAT, read-out: solo application % activity",75%
same,inhibition at 2 g/ha,"Setaria viridis; SETVI PRE, read-out: % activity",50%
same,pest or weed control at 2 g/ha,"Abutilon theophrasti [3]; 480 h, I-4 solo 2 gai/ha, 20 DAT",20%
same,inhibition at 2 g/ha,"Abutilon theophrasti [3]; 480 h, 20 DAT, read-out: solo application % activity",10%
same,inhibition at 8 g/ha,Abutilon theophrasti [3]; [9],10%
same,inhibition at 2 g/ha,"Amaranthus retroflexus; 480 h, use rate 2 gai/ha, 20 DAT, read-out: solo application % activity",80%
same,inhibition at 8 g/ha,Amaranthus retroflexus; [9],75%
same,% activity,"Digitaria sanguinalis; DIGSA POST, use rate 8 gai/ha",35%
same,inhibition at 2 g/ha,"Digitaria sanguinalis; 480 h, POST, DIGSA, 20 DAT, read-out: solo application % activity",0%
same,inhibition at 8 g/ha,"Digitaria sanguinalis; 480 h, POST, DIGSA, use rate 8 gai/ha, 20 DAT, read-out: solo application % activity",0%
same,inhibition at 2 g/ha,Digitaria sanguinalis; [5],10%
same,inhibition at 8 g/ha,"Digitaria sanguinalis; DIGSA POST, use rate 8 gai/ha, read-out: % activity",25%
same,pest or weed control at 2 g/ha,"Geranium pusillum [4]; 480 h, POST, GERPU, I-4 solo 2 gai/ha, 20 DAT",10%
same,pest or weed control at 8 g/ha,"Geranium pusillum [4]; 480 h, POST, GERPU, I-4 solo 8 gai/ha, 20 DAT",30%
same,inhibition at 2 g/ha,Geranium pusillum [4]; [10],5%
same,inhibition at 8 g/ha,Geranium pusillum [4]; [10],25%
same,inhibition at 8 g/ha,"Ipomoea hederacea; 480 h, POST, IPOHE, use rate 8 gai/ha, 20 DAT, read-out: solo application % activity",80%
same,inhibition at 2 g/ha,"Ipomoea hederacea; IPOHE POST, use rate 2 gai/ha, read-out: % activity",40%
